Experimental data published in patent publication US20030229228A1 (priority 2000, published 2003).

CCS(=O)(=O)N[C@H](C(=O)NCCc1cc(Br)c(OCC#Cc2ccc(Cl)cc2)c(OC)c1)C(C)C
melting point: 109 to 111 °C

CCS(=O)(=O)N[C@H](C(=O)NCCc1cc(Br)c(O)c(OC)c1)C(C)C
melting point: 145 to 147 °C
